In patent US12691100B2, “NMT inhibitor treatment of a senescence-associated disease or disorder of the liver” (Imperial College Innovations Limited, priority 2020, dated 2026):

Test: High fat diet model of nonalcoholic steatohepatitis (NASH)
Format: in vivo, male C57/BL6 mice
Settings: HFD mice, 10 mg/kg
Source text: For high-fat diet experiments C57BL/6J male mice aged 8-weeks old were placed on Chow or high-fat diet (kcal 40% fat (non-trans-fat Primex Shortening), kcal 20% fructose, 2% cholesterol, D1602230i) for 4 weeks prior to first round of injections. […] Blood was collected prior to each round of injection for physiological assessments. Mice were allowed to rest 4 weeks prior to being culled and organs collected for freezing in OCT, paraffin embedding, blood collection for physiological measurements and tissue snap-freezing for RNA extraction.
For analysis of immune cell composition in whole blood, tail-vein blood was collected 2 days after last treatment. Whole blood was diluted in saline to a volume of […] and ran on a Sysmex XE2100 automated cell counter. Blood glucose levels were determined by collecting whole-blood from tail vein into heparinised tubes (Abraxis), 120-140 μL of whole-blood to be loaded onto a comprehensive diagnostic profile reagent rotor (Abraxis) and run on a VetScan VS2 Chemistry Analyzer (Abraxis: 500-7123).
Immunohistochemical staining—Slides were deparaffinised by washing slides twice in Histoclear™ for 5 min each, followed by 5 min washes in decreasing concentrations of ethanol with 100%, 75%, 50% & 25% ethanol washes before a final wash 5 min in dH2O. Heat induced epitope retrieval (HIER) was then performed in pressure cooker for 20 min using either antigen-unmasking solution, Citrate-based at pH 6.0 (VectorLab H-3300-250) or antigen-unmasking solution, Tris-based at pH 9.0 (VectorLab H-3301-250) depending on antibody manufacturers' instructions. Following HIER, slides were cooled on ice for 10 min and then washed in PBS for 5 min. For intracellular stains, sections were permeabilized with 0.2% Triton X-100 in PBS for 10 min and washed twice in PBS for 5 min. For NRAS staining in liver slides were washed in 0.1% H2O2 in PBS for 15 min followed by washing twice in PBS to reduce endogenous peroxide activity. Sections were marked using hydrophobic pen and Non-specific antigen binding was blocked by incubating slides with CAS-Block™ Histochemical reagent (ThermoFisher, 008120) for 30-45 min in a humidified chamber. Slides were then incubated with primary antibody overnight in a humidified chamber at 4° C. For experiments utilising p21 antibody, slides were incubated with primary p21 antibody (p21 [EPR18021], Abcam, 1:200) overnight in a humidified chamber at 4° C. Slides were washed twice in PBS for 5 min and incubated with secondary antibody SignalStain® Boost IHC detection reagent Mouse/Rabbit, HRP (Cell Signalling Technology, 8125) for 30-45 min. Next, slides were washed twice in PBS for 5 min and incubated for 2-10 min with SignalStain® DAB substrate kit (CST, 8059) to detect HRP signal. Signal development was stopped when visible positive cells could be detected on a microscope, by washing slides in dH2O. To counterstain DAB signal, slides were incubated for 30 s in Modified Mayer's Hematoxylin (Lillie's Modification) (DAKO), washed in dH2O, and incubated for 30 s in 0.05% Ammonium solution (PBS) followed by washing in dH2O. Prior to mounting coverslips with VectaMount aqueous mounting media (VectorLab, H-5501-60) slides were dehydrated by washing 1 min in 75% Ethanol, 5 min in 100% Ethanol and 5 min in Histoclear®.
Oil Red O staining for lipids was carried out on liver tissue in OCT was snap-frozen in liquid N2 and cryosectioned (15 μM). Sections were equilibrated to RT for 10 min and then stained with 0.5% Oil Red O solution (w/v, in isopropanol, Sigma, O1391) for 5 min, rinsed in tap water and counterstained with Mayer's hematoxylin for 30 s. Then sections were again rinsed in tap water for 30 min and coverslips mounted. Images were acquired on Zeiss AxioScan Z.1 and ImageJ quantification of Oil-red stain area relative to background tissue area performed for 3 fields per section. […]

In the case of Cc1c(NS(=O)(=O)c2c(Cl)cc(-c3ccnc(N4CCNCC4)c3)cc2Cl)c(CC(C)C)nn1C [Compound 2], the “Liver fibrosis (Sirius red staining)” value (FIG. 23) is reported as “normalized”, the “p21^CIP1-positive hepatocytes in the liver” value (FIG. 24A) is reported as “reduction of p21^CIP1-positive hepatocytes” and the “Lipid accumulation (steatosis) in liver” value (FIG. 24D) is reported as “reduction in this lipid accumulation”. For the same compound, the “Transcriptional signatures of collagen formation in liver” value (GSEA, FIG. 24E) was “downregulation”, the “Transcriptional signature of Fridman senescence in liver” value (GSEA, FIGS. 24B-C) was “downregulation” and the “Transcriptional signature of senescence-associated secretory phenotype in liver” value (GSEA, FIGS. 24B-C) was “downregulation”. The “Col1a1 mRNA in liver” value (RT-qPCR, FIGS. 24F-G) was “lower”, the “Col4a1 mRNA in liver” value (RT-qPCR, FIGS. 24F-G) was “lower” and the ALP in blood (before 3rd round, FIGS. 22B-D) was “normalised”. The ALT in blood (before 3rd round, FIGS. 22B-D) was “normalised”, the Albumin in blood (before 3rd round, FIGS. 22B-D) was “normalised” and the suPAR in blood (before 3rd round, versus vehicle, FIG. 22A) was “lower levels of suPAR”.
